Data published in ChEMBL document CHEMBL4507273 (2021).

Legend:
[1] = target: Vascular endothelial growth factor receptor 1 (Homo sapiens) (UniProt P17948); experiment: Flt1(h) Eurofins Kinase panel; conditions: Compound concentration 1.0 uM
[2] = target: Tyrosine-protein kinase Lyn (Homo sapiens) (UniProt P07948); experiment: Lyn(h) Eurofins Kinase panel; conditions: Compound concentration 1.0 uM
Histamine H2 receptor = Histamine H2 receptor (Homo sapiens, UniProt P25021); conditions: Compound concentration 10.0 uM
[3] = target: Tau-tubulin kinase 1 (Homo sapiens) (UniProt Q5TCY1); experiment: TTBK1(h) Eurofins Kinase panel; conditions: Compound concentration 1.0 uM
[4] = target: Insulin-like growth factor 1 receptor (Homo sapiens) (UniProt P08069); experiment: IGF-1R(h) Eurofins Kinase panel; conditions: Compound concentration 1.0 uM
[5] = target: Kappa-type opioid receptor (Homo sapiens, UniProt P41145); conditions: Compound concentration 10.0 uM
[6] = target: Serine/threonine-protein kinase PAK 6 (Homo sapiens) (UniProt Q9NQU5); experiment: PAK6(h) Eurofins Kinase panel; conditions: Compound concentration 1.0 uM
[7] = target: Muscarinic acetylcholine receptor M3 (Homo sapiens, UniProt P20309); experiment: GPCRScan assay: inhibition of M3; set-up: radioligand conc. used [nm] 0.3 – 1.0, parental cells stable CHO
[8] = target: NT-3 growth factor receptor (Homo sapiens) (UniProt Q16288); experiment: TrkC(h) Eurofins Kinase panel; conditions: Compound concentration 1.0 uM
[9] = target: 5-hydroxytryptamine receptor 2A (Homo sapiens, UniProt P28223); conditions: Compound concentration 10.0 uM
[10] = target: Vascular endothelial growth factor receptor 3 (Homo sapiens) (UniProt P35916); experiment: Flt4(h) Eurofins Kinase panel; conditions: Compound concentration 1.0 uM
Mu-type opioid receptor [11] = target: T1, Mu-type opioid receptor (Homo sapiens, UniProt P35372); conditions: Compound concentration 10.0 uM
[12] = target: T2, 5-hydroxytryptamine receptor 1A (Homo sapiens) (UniProt P08908); conditions: Compound concentration 10.0 uM
T2 sequence (whole entry): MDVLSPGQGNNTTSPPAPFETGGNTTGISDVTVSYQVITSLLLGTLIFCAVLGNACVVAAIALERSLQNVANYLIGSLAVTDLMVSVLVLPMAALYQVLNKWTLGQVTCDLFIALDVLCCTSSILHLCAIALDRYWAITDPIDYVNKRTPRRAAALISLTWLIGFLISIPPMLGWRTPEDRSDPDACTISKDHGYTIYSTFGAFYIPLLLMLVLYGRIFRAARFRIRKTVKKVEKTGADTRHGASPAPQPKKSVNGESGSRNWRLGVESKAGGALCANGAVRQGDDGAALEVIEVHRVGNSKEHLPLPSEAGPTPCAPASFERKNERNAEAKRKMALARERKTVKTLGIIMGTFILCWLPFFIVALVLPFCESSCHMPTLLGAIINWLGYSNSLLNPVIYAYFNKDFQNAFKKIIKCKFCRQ

[13] = target: T3, Testis-specific serine/threonine-protein kinase 1 (Homo sapiens) (UniProt Q9BXA7); experiment: TSSK1(h) Eurofins Kinase panel; conditions: Compound concentration 1.0 uM
T3 sequence (whole entry): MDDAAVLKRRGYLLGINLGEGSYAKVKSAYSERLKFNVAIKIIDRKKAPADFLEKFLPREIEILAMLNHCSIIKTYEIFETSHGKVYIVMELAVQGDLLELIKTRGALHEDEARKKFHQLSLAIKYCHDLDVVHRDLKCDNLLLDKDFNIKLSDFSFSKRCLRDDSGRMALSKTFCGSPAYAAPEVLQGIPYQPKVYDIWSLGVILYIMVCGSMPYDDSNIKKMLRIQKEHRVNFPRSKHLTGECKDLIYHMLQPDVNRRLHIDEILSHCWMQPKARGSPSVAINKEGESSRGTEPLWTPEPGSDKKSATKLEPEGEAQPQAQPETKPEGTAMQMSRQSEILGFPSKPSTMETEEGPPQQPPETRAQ

[14] = target: T4, Alpha-2C adrenergic receptor (Homo sapiens) (UniProt P18825); conditions: Compound concentration 10.0 uM
T4 sequence (whole entry): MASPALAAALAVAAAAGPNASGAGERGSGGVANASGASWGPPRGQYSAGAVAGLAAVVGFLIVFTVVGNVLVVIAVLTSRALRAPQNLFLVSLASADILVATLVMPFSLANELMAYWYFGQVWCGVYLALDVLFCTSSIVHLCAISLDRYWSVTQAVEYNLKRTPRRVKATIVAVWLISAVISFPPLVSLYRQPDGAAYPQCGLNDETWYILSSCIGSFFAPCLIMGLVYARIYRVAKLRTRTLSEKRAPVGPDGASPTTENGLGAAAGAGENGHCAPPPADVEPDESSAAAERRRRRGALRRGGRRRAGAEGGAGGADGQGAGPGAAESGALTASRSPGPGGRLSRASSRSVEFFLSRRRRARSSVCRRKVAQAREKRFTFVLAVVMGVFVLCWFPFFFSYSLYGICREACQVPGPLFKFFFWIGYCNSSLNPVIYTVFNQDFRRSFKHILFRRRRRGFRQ

[15] = target: Tyrosine-protein kinase receptor UFO (Homo sapiens) (UniProt P30530); experiment: Axl(h) Eurofins Kinase panel; conditions: Compound concentration 1.0 uM
[16] = target: Sodium-dependent noradrenaline transporter (Homo sapiens, UniProt P23975); conditions: Compound concentration 10.0 uM
ATR/ATRIP (Homo sapiens) = ATR/ATRIP (Homo sapiens) (UniProt Q13535+Q8WXE1); experiment: ATR/ATRIP(h) Eurofins Kinase panel; type: protein-complex assay; conditions: Compound concentration 1.0 uM
[17] = target: Casein kinase II subunit alpha' (Homo sapiens) (UniProt P19784); experiment: CK2alpha2(h) Eurofins Kinase panel; conditions: Compound concentration 1.0 uM
[18] = target: Serine/threonine-protein kinase 26 (Homo sapiens) (UniProt Q9P289); experiment: MST4(h) Eurofins Kinase panel; conditions: Compound concentration 1.0 uM
D(1A) dopamine receptor = D(1A) dopamine receptor (Homo sapiens, UniProt P21728); conditions: Compound concentration 10.0 uM
[19] = target: Muscarinic acetylcholine receptor M4 (Homo sapiens, UniProt P08173); experiment: GPCRScan assay: inhibition of M4; set-up: radioligand conc. used [nm] 0.3 – 1.0, parental cells stable CHO
Mu-type opioid receptor [20] = target: T1, Mu-type opioid receptor; experiment: GPCRScan assay: inhibition of MOR; set-up: radioligand conc. used [nm] 1.0 – 2.0, parental cells stable HEK
[21] = target: Sodium-dependent serotonin transporter (Homo sapiens, UniProt P31645); experiment: GPCRScan assay: inhibition of SERT; set-up: radioligand conc. used [nm] 1.5 – 2.0, parental cells stable HEK
D(2) dopamine receptor = D(2) dopamine receptor (Homo sapiens, UniProt P14416); experiment: GPCRScan assay: inhibition of D2; set-up: radioligand conc. used [nm] 0.4 – 1.0, parental cells stable fibroblast
Histamine H4 receptor = Histamine H4 receptor (Homo sapiens, UniProt Q9H3N8); experiment: GPCRScan assay: inhibition of H4; set-up: radioligand conc. used [nm] 1.0 – 5.0, parental cells HEK T
Chain of Histamine H4 receptor (Q9H3N8 whole entry): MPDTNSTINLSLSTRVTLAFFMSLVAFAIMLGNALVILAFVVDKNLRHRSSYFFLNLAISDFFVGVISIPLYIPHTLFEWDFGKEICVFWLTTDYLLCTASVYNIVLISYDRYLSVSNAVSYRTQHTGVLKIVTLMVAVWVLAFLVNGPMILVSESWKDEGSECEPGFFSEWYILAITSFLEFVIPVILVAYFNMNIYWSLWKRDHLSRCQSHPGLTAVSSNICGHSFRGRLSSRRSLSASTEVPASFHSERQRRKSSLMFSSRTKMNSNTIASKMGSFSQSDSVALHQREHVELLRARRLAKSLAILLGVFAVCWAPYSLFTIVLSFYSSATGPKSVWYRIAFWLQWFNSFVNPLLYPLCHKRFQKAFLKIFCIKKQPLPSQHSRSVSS

T1 sequence (P35372 whole entry): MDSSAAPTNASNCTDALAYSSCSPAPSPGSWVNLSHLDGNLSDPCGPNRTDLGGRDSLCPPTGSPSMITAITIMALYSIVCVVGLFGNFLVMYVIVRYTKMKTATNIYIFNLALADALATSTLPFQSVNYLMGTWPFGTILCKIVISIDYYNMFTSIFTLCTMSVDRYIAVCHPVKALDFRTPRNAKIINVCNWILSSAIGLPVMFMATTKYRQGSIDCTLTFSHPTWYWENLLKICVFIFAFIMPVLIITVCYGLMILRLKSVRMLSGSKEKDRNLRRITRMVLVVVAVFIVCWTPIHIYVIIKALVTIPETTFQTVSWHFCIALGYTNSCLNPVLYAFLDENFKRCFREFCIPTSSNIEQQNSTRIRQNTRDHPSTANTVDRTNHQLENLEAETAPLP
Chain of D(2) dopamine receptor (P14416 whole entry): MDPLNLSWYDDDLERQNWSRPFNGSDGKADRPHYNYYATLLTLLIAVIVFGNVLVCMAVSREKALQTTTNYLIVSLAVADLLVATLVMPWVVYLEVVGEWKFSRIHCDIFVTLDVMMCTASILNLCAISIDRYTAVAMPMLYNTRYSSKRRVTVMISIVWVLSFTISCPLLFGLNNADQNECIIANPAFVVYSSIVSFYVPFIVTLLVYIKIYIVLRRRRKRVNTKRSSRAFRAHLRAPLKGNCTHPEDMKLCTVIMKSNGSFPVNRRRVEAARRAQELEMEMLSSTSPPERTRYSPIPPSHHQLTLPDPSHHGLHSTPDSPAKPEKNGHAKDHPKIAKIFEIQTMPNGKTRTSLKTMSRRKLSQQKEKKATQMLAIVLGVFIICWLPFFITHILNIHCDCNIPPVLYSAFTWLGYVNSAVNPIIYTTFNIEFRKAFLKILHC
Chain of Muscarinic acetylcholine receptor M4 (P08173 whole entry): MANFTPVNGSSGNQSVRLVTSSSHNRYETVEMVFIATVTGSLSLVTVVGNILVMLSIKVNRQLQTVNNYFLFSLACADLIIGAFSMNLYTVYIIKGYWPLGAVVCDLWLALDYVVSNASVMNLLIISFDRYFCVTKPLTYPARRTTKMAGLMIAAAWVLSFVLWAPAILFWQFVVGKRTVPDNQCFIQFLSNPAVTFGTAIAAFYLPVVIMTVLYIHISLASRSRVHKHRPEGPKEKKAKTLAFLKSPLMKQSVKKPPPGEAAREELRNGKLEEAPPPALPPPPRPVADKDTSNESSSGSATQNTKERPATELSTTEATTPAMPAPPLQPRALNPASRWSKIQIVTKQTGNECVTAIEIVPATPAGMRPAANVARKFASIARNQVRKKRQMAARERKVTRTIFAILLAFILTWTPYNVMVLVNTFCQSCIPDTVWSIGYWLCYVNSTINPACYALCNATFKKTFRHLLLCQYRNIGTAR
Chain of Muscarinic acetylcholine receptor M3 (P20309 whole entry): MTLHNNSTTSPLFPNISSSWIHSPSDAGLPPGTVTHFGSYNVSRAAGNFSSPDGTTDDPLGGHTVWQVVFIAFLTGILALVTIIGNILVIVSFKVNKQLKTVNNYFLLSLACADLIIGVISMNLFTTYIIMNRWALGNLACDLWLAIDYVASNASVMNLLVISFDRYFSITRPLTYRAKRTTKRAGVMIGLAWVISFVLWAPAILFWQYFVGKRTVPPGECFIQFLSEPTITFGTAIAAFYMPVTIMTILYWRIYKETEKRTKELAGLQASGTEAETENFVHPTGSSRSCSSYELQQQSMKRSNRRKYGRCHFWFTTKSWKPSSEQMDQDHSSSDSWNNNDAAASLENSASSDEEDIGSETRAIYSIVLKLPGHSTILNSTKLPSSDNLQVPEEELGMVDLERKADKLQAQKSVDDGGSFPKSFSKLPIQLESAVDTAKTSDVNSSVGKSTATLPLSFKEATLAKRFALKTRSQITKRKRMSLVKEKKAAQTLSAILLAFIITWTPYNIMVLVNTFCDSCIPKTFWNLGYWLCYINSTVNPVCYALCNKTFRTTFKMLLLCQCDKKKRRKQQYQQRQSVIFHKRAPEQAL
Chain of Tyrosine-protein kinase receptor UFO (Homo sapiens) (P30530 whole entry): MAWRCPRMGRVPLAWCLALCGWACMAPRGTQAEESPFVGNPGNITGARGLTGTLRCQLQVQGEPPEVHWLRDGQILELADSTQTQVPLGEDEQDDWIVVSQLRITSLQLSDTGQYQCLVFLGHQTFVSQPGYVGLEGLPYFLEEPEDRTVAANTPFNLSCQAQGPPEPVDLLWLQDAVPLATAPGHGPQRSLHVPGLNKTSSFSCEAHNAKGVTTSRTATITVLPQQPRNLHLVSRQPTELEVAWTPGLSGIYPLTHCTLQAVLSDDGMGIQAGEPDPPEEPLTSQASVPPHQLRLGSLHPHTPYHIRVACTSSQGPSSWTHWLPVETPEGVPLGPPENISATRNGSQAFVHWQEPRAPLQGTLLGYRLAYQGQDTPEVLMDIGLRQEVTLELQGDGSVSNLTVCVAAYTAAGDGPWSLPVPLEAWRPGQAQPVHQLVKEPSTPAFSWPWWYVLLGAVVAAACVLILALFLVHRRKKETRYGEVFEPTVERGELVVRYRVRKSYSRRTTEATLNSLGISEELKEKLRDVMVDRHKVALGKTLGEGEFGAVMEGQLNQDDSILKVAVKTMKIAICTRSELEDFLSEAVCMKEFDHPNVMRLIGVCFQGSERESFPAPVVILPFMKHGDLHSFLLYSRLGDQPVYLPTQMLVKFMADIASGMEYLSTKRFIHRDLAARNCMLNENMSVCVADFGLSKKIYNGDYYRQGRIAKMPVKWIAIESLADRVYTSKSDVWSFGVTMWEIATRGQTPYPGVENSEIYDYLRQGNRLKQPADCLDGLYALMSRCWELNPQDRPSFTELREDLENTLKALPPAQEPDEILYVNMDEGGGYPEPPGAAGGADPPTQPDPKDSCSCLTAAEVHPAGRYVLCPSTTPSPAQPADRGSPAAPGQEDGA
Chain of Serine/threonine-protein kinase 26 (Homo sapiens) (Q9P289 2-416 limits assumed): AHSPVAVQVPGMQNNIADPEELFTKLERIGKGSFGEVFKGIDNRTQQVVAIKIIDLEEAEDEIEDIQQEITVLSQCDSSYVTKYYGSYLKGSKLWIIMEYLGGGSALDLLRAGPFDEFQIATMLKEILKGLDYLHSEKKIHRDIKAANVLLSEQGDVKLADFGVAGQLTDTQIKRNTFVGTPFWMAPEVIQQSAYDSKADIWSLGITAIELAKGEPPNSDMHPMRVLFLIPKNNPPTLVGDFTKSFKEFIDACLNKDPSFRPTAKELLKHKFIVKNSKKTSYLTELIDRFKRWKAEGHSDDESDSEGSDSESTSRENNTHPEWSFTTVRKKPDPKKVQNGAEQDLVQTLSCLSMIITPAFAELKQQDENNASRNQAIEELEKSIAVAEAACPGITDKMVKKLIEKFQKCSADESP
Chain of D(1A) dopamine receptor (P21728 whole entry): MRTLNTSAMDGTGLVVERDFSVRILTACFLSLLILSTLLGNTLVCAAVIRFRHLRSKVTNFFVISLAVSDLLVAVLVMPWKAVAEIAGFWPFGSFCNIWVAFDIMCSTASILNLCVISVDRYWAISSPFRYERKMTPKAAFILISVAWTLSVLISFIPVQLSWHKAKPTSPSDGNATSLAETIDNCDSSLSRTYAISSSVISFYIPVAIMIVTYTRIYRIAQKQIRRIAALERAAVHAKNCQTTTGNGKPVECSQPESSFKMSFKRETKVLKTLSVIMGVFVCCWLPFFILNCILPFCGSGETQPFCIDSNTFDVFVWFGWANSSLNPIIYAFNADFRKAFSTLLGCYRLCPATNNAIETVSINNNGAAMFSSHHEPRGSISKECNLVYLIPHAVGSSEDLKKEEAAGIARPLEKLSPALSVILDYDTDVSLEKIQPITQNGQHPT
Chain of Casein kinase II subunit alpha' (Homo sapiens) (P19784 whole entry, looked up): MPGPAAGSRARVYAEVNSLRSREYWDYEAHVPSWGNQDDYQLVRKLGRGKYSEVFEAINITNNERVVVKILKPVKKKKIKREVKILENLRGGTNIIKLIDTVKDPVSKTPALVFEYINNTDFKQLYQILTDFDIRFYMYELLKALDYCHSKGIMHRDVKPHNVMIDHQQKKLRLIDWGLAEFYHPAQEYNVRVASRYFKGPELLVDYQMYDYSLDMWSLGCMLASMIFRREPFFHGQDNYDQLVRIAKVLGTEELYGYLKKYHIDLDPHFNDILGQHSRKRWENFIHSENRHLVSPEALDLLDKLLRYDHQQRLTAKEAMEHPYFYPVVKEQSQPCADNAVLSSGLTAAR
Chain of Tyrosine-protein kinase Lyn (Homo sapiens) (P07948 2-512 limits assumed): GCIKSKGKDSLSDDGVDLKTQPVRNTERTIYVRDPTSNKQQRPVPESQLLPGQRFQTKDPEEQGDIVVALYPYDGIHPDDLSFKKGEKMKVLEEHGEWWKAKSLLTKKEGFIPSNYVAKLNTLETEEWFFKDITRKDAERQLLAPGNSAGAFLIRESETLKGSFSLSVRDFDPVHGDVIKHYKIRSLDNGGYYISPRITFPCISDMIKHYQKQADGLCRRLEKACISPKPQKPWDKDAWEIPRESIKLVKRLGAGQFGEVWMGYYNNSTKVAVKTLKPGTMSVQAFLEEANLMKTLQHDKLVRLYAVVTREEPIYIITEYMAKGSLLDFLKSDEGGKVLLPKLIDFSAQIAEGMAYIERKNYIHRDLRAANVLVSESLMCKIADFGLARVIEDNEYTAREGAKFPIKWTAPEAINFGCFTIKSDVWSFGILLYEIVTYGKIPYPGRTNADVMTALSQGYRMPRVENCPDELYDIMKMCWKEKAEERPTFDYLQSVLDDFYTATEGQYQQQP

## CNCc1ccccc1-c1csc([C@@H](C)Nc2nc(C)nc3cc(OC)c(OC)cc23)c1 [BAY-293]
[1]
  % residual kinase activity: 88%
[2]
  % residual kinase activity: 88%
Histamine H2 receptor
  inhibition: 99%
[3]
  % residual kinase activity: 87%
[4]
  % residual kinase activity: 74%
[5]
  inhibition: 105%
[6]
  % residual kinase activity: 88%
[7]; read-out: Ki
  Ki: 972 nM
[7]; read-out: pKi (converted)
  Ki: 955 nM
[8]
  % residual kinase activity: 80%
[9]
  inhibition: 110%
[10]
  % residual kinase activity: 82%
Mu-type opioid receptor [11]
  inhibition: 93%
[12]
  inhibition: 81%
[13]
  % residual kinase activity: 79%
[14]
  inhibition: 99%
[15]
  % residual kinase activity: 88%
[16]
  inhibition: 86%
ATR/ATRIP (Homo sapiens)
  % residual kinase activity: 88%
[17]
  % residual kinase activity: 67%
[18]
  % residual kinase activity: 88%
D(1A) dopamine receptor
  inhibition: 85%

## CNCc1ccccc1-c1csc([C@H](C)Nc2nc(C)nc3cc(OC)c(OC)cc23)c1 [BAY-294]
[19]; read-out: Ki
  Ki: 303 nM
[19]; read-out: pKi (converted)
  Ki: 292 nM
Mu-type opioid receptor [20]; read-out: Ki
  Ki: 854 nM
Mu-type opioid receptor [20]; read-out: pKi (converted)
  Ki: 759 nM
[21]
  Ki: 4230 nM
D(2) dopamine receptor; read-out: Ki
  Ki: 2330 nM
D(2) dopamine receptor; read-out: pKi (converted)
  Ki: 2000 nM
Histamine H4 receptor
  Ki: 1890 nM
